Values quoted from earlier work as cited in the CATMoS acute toxicity set (Mansouri et al. 2021).
“And” between values parts separate entries of the source, which are not always exact repeats. Equal entries are not always repeated.

Experiment: rat acute oral toxicity
Conditions: in vivo

Structure (SMILES) | LD50
CC1CCCc2n1c(=O)c(C(N)=O)c[n+]2C (centres undefined) | 600 mg/kg
CNC(=O)ON=C1SC(=NC(C)(C)C)SC1(C)C | 31.5 mg/kg
COc1ccc2c(c1)C13CCCCC1C(C2)N(C)CC3 (centres undefined) | 235 mg/kg
Oc1ccc(-c2ccc(O)cc2)cc1 | 4920 mg/kg
CCC=C(C)C=O | 4290 mg/kg
c1ccc(P(c2ccccc2)c2ccccc2)cc1 | 700 mg/kg
CN1C(=O)c2ccc([N+](=O)[O-])cc2C1=O | 2800 mg/kg
NNC(=O)[C@@H](N)CS | 1050 mg/kg
Cc1cccn2c(=O)c(-c3nnn[nH]3)cnc12 | 687 mg/kg
CCSC(=O)Oc1c(C(C)CC)cc([N+](=O)[O-])cc1[N+](=O)[O-] (centres undefined) | 147 mg/kg
CC[C@H](C)N | 380 mg/kg
CCCC1(c2cccc(O)c2)CCN(C)C1 (centres undefined) | 231 mg/kg
CCN(CC)CCSC(=O)N(c1ccccc1)c1ccccc1 | 370 mg/kg
COP(=O)(Oc1ccccc1)OC(Br)C(Cl)(Cl)Br (centres undefined) | 500 mg/kg
CC(C)(C#N)Nc1nc(Cl)nc(NC2CC2)n1 | 290 mg/kg
CNCC(O)c1cccc(NS(C)(=O)=O)c1 (centres undefined) | 13 mg/kg
O=NN(CCO)CCO | 7500 mg/kg
c1ccc2c3c([nH]c2c1)CCCC3 | 2650 mg/kg
CCCCOCC | 1870 mg/kg
COP(=O)(SC(C)C)SC(C)C | 119 mg/kg
Clc1cccc(-c2cc(Cl)cc(Cl)c2)c1 | 2300 mg/kg
CCOc1ccccc1OS(=O)(=O)NC(O)=Nc1nc(OC)cc(OC)n1 | 2910 mg/kg
C=COC(=O)CCCCC(=O)OC | 6200 mg/kg
O=C(OC(=O)C(Cl)Cl)C(Cl)Cl | 2820 mg/kg
Nc1c(Cl)c(Cl)c2[nH]c(C(F)(F)F)nc2c1Cl | 23 mg/kg

Structure (SMILES) | LD50
CNC1=Nc2ccc(Cl)cc2C(c2ccccc2)=[N+]([O-])C1 | 537 mg/kg
CC1CN1 (centres undefined) | 19 mg/kg
C(=N\C(/N=C/c1ccco1)c1ccco1)/c1ccco1 | 400 mg/kg
O=C(OC1CCC(N2CCCCC2)CC1)c1ccc([N+](=O)[O-])cc1 (centres undefined) | 3250 mg/kg
C=CCOC(=O)OC(=C)C(=O)OCC=C | 390 mg/kg
CCOC(=O)C=CN(C)C | 4500 mg/kg
Cc1cc(NC(=O)c2ccccc2O)n(-c2ccccc2)n1 | 1320 mg/kg
O=[N+]([O-])c1ccc(OP(=O)(OCCCl)OCCCl)cc1 | 37 mg/kg
O=C(O)Cc1ccccc1Oc1c(Cl)c(Cl)cc(Cl)c1Cl | 303 mg/kg
NC(=O)C(c1ccccc1)c1ccccc1 | 600 mg/kg
Cc1ncc(CS)c(CO)c1O | 3000 mg/kg
COP(=S)(OC)Sc1ccc(Cl)cc1 | 500 mg/kg
NCC1CCC(CN)CC1 (centres undefined) | 530 mg/kg
CCN(CC)C(=O)[C@]1(c2ccccc2)C[C@@H]1CN | 213 mg/kg
CCN(CC)CCOc1ccc(C(=C(Cl)c2ccccc2)c2ccccc2)cc1 | 5750 mg/kg
COP(=S)(OC)SCSCC=C(Cl)Cl | 85 mg/kg
CC(=O)O[C@H]1C[C@@H]2CC[C@@]1(C)C2(C)C | 9050 mg/kg
CCCN(CCC)C(=O)C(CCC(=O)O)NC(=O)c1ccccc1 (centres undefined) | 20000 mg/kg and 8200 mg/kg
CC(CN)CCCN (centres undefined) | 1690 mg/kg
O=C(O)c1c(Cl)c(Cl)c(Cl)c(Cl)c1C(O)=Nc1cccc(Cl)c1Cl | 2340 mg/kg
CCOP(=S)(OCC)Oc1cc(C)nc(N(C)C)n1 | 125 mg/kg
CCC(Cl)Cl | 6500 mg/kg
CCCCCCCCn1sccc1=O | 550 mg/kg
O=C(O)c1c(Cl)ccc(Cl)c1O | 1560 mg/kg
CCCCCCCCCCCCCCOC(=O)Cc1ccc(N(CCCl)CCCl)cc1 | 46 mg/kg

Structure (SMILES) | LD50
c1ccc2c(c1)OCCOCCOc1ccccc1OCCOCCO2 | 2600 mg/kg
O=C(CCNNC(=O)c1ccncc1)NCc1ccccc1 | 1700 mg/kg
CCCC[N+](CCCC)(CCCC)CCCC | 1990 mg/kg
Clc1cc(Cl)cc(C2(CC(Cl)(Cl)Cl)CO2)c1 (centres undefined) | 1500 mg/kg
CCC(=O)C(C)=O | 3000 mg/kg
COc1ccc2cc(CCC(C)=O)ccc2c1 | 3880 mg/kg
Nc1nnc(C=Cc2ccc([N+](=O)[O-])o2)s1 | 1880 mg/kg
CCC(CC)(C(=O)O)c1cccc2ccccc12 | 1080 mg/kg
CCCC/C=C/C=O | 1300 mg/kg
CC(=O)OC(C(=O)NC(N)=O)c1ccccc1 (centres undefined) | 2100 mg/kg
CN1CCN(CCC=C2c3ccccc3Sc3ccc(S(=O)(=O)N(C)C)cc32)CC1 | 720 mg/kg
CCOC(=O)C=Cc1ccc(Cl)cc1 | 957 mg/kg
COc1cc(NC(=O)CC(C)=O)c(OC)cc1Cl | 850 mg/kg
CC[N+](C)(CC)CCOC(=O)C(O)(c1ccccc1)C1CCCCC1 (centres undefined) | 995 mg/kg
CCN(CC)CCCNC(=O)C(C)(C)Oc1ccc(Cl)cc1 | 150 mg/kg
C/C(=C\C(C)CC(C)CC(C)C)C1CC(=O)OC1=O (centres undefined) | 2550 mg/kg
C[N+](C)(C)CCOC(N)=O | 40 mg/kg
CC(C=O)c1ccccc1 (centres undefined) | 2800 mg/kg
COC(=O)Nc1nc2ccccc2n1C(=O)NCCCCCC#N | 2500 mg/kg
C#CCN(C)CCCOc1ccc(Cl)cc1Cl | 210 mg/kg
ClC1=C(Cl)C2(Cl)C3C4C=CC(O4)C3C1(Cl)C2(Cl)Cl (centres undefined) | 68 mg/kg
CO[Si](CCl)(OC)OC | 500 mg/kg
OC1(c2ccccc2)c2cc(F)ccc2C2=NCCN21 (centres undefined) | 40 mg/kg
CNc1ccc(NCCO)c2c1C(=O)c1ccccc1C2=O | 1340 mg/kg
